The NIST ThermoML archive (doi:10.1021/acs.jced.6b00197)

How the values were obtained:
[1] = Liquid; for mass density: 293.15 K, 101.33 kPa, Pycnometric method; for Normal boiling temperature: Ebulliometric method (Recirculating still)
[2] = Boiling temperature at pressure P; conditions: Liquid, Ebulliometric method (Recirculating still)
[3] = refractive index (Na D-line) (dimensionless); conditions: 293.25 K; 101.33 kPa; Liquid; Standard Abbe refractometry

CC(C)CCO [3-methylbutan-1-ol]
Conditions	Normal boiling temperature [°C]	mass density [kg/m3]	refractive index
[1]	131.30	810	–
[3]	–	–	1.4067

[2]
Conditions	Boiling temperature at pressure P [°C]
5 kPa	62.70
10 kPa	75.77
19.99 kPa	90.18
40.01 kPa	106.36
49.99 kPa	111.97
59.99 kPa	116.67
79.99 kPa	124.46
100 kPa	130.86
101.31 kPa	131.21
120 kPa	136.04
139.99 kPa	141.06
159.99 kPa	145.36
180.01 kPa	149.28
200 kPa	152.86

CC(=O)OCCC(C)C [3-methylbutyl ethanoate]
Conditions	Normal boiling temperature [°C]	mass density [kg/m3]	refractive index
[1]	142.09	873	–
[3]	–	–	1.4008

[2]
Conditions	Boiling temperature at pressure P [°C]
4.98 kPa	59.86
10.05 kPa	75.04
19.88 kPa	92.10
39.98 kPa	111.42
50.03 kPa	118.20
60.02 kPa	123.93
79.97 kPa	133.43
99.82 kPa	141.17
101.09 kPa	141.63
120.12 kPa	147.90
140.02 kPa	153.64
159.98 kPa	158.77
179.92 kPa	163.38
199.94 kPa	167.59
